Laboratory results from ChEMBL document CHEMBL5137005, “Development of Dual Inhibitors Targeting Epidermal Growth Factor Receptor in Cancer Therapy” (J Med Chem, 2022).
One block for each compound: values may come before it.

How the values were obtained:
NCI-H1975 = experiment: Antiproliferative activity against human H1975 cells overexpressing EGFR T790M/L858R assessed as cell growth inhibition incubated for 24 hrs; assay type: functional
MCF7 [1] = experiment: Antiproliferative activity against human MCF7 cells overexpressing HER2 assessed as cell growth inhibition incubated for 24 hrs; assay type: functional
A-431 [2] = experiment: Antiproliferative activity against human A-431 cells overexpressing wildtype EGFR assessed as cell growth inhibition incubated for 24 hrs; assay type: functional
[3] = biological target: Fibroblast growth factor receptor 4 (Homo sapiens, UniProt P22455); experiment: Inhibition of FGFR4 (unknown origin) using biotin as substrate incubated for 2 hrs by HTRF assay
[4] = biological target: T1, Epidermal growth factor receptor (Homo sapiens, UniProt P00533); experiment: Inhibition of EGFR (unknown origin) using biotin as substrate incubated for 2 hrs by HTRF assay
Tubulin [5] = experiment: Inhibition of tubulin polymerization (unknown origin); assay type: protein-complex assay, Homo sapiens
MCF7 [6] = experiment: Growth inhibition of human MCF7 cells; assay type: functional
A549 = experiment: Growth inhibition of human A549 cells; assay type: functional
A-431 [7] = experiment: Growth inhibition of human A-431 cells; assay type: functional
[8] = biological target: T1, Epidermal growth factor receptor; experiment: Inhibition of EGFR (unknown origin) by microplate reader
HT-29 = experiment: Growth inhibition of human HT-29 cells incubated for 72 hrs by MTT assay; assay type: functional
MDA-MB-231 = experiment: Growth inhibition of human MDA-MB-231 cells incubated for 72 hrs by MTT assay; assay type: functional
KG-1 = experiment: Growth inhibition of human KG-1 cells incubated for 72 hrs by MTT assay; assay type: functional
MDA-MB-468 = experiment: Growth inhibition of human MDA-MB-468 cells incubated for 72 hrs by MTT assay; assay type: functional
[9] = biological target: Receptor tyrosine-protein kinase erbB-2 (Homo sapiens, UniProt P04626); experiment: Inhibition of HER2 (unknown origin)
[10] = biological target: T1, Epidermal growth factor receptor; experiment: Inhibition of EGFR (unknown origin)
[11] = biological target: T2, Protein deacetylase HDAC6 (Homo sapiens, UniProt Q9UBN7); experiment: Inhibition of HDAC6 (unknown origin)
T2 sequence (Q9UBN7 whole entry): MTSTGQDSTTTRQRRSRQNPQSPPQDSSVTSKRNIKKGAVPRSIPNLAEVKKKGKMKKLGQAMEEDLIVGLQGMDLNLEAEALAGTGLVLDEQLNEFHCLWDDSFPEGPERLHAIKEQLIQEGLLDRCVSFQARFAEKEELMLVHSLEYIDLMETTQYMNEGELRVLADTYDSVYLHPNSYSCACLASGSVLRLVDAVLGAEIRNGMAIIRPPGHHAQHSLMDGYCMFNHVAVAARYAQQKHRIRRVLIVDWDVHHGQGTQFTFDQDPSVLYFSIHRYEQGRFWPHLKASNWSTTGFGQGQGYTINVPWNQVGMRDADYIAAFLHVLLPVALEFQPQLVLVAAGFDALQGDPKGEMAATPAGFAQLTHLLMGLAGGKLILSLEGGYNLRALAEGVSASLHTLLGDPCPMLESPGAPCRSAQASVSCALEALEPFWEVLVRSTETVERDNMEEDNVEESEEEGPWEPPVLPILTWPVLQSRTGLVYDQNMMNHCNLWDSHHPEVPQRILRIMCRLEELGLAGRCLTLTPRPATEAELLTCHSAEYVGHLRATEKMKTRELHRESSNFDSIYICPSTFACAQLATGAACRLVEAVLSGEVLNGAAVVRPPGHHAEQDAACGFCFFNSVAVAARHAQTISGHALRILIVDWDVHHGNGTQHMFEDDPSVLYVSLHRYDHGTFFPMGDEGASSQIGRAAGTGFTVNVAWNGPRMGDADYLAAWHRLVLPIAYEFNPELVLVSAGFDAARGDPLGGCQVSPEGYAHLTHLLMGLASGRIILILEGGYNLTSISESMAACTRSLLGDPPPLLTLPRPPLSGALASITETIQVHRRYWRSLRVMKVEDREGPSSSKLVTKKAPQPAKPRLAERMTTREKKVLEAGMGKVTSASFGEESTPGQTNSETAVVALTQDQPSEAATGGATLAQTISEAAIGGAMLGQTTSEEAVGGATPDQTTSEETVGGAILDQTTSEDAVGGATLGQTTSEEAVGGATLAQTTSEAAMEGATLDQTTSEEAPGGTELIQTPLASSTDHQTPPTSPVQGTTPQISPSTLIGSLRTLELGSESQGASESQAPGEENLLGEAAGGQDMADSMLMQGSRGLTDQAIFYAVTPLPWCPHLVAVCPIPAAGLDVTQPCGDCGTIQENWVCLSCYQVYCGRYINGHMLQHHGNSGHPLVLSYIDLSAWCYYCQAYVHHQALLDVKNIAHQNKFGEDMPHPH

Histone deacetylase 1 [12] = biological target: T3, Histone deacetylase 1 (Homo sapiens, UniProt Q13547); experiment: Inhibition of HDAC1 (unknown origin)
Histone deacetylase 3 = Histone deacetylase 3 (Homo sapiens, UniProt O15379); experiment: Inhibition of human recombinant HDAC3 expressed in insect High5 cells using baculovirus expression system using Ac-Lys-Tyr-Lys (epsilon-acetyl)-AMC as substrate incubated for 24 hrs by multilabel plate reader method; set-up: species or system BTI-TN-5B1-4
[13] = biological target: T1, Epidermal growth factor receptor; experiment: Inhibition of EGFR (unknown origin) using synthetic biotinylated peptide as substrate […] by microplate reader method relative to control
Histone deacetylase 1 [14] = biological target: T3, Histone deacetylase 1; experiment: Inhibition of human recombinant HDAC1 expressed in insect High5 cells using baculovirus expression system using Ac-Lys-Tyr-Lys (epsilon-acetyl)-AMC as substrate incubated for 24 hrs by multilabel plate reader method; set-up: species or system BTI-TN-5B1-4
[15] = biological target: T2, Protein deacetylase HDAC6; experiment: Inhibition of human recombinant HDAC6 expressed in insect High5 cells using baculovirus expression system using Boc-Lys (epsilon-acetyl)-AMC as substrate incubated for 3 hrs by multilabel plate reader method; set-up: species or system BTI-TN-5B1-4
Tubulin [16] = experiment: Inhibition of tubulin polymerization (unknown origin) by measuring absorbance; assay type: protein-complex assay, Homo sapiens
[17] = biological target: Nuclear factor NF-kappa-B complex (Homo sapiens, UniProt P19838+Q00653+Q04206); experiment: Inhibition of NF-kappaB (unknown origin); assay type: protein-complex assay
Histone deacetylase = experiment: Inhibition of HDAC in human HeLa cell nuclear extract using fluorogenic Boc-Lys(acetyl)-AMC as substrate preincubated for 5 mins followed by addition of substrate measured after 20 mins by microplate reader; assay type: cell-free

T1 sequence (P00533 whole entry): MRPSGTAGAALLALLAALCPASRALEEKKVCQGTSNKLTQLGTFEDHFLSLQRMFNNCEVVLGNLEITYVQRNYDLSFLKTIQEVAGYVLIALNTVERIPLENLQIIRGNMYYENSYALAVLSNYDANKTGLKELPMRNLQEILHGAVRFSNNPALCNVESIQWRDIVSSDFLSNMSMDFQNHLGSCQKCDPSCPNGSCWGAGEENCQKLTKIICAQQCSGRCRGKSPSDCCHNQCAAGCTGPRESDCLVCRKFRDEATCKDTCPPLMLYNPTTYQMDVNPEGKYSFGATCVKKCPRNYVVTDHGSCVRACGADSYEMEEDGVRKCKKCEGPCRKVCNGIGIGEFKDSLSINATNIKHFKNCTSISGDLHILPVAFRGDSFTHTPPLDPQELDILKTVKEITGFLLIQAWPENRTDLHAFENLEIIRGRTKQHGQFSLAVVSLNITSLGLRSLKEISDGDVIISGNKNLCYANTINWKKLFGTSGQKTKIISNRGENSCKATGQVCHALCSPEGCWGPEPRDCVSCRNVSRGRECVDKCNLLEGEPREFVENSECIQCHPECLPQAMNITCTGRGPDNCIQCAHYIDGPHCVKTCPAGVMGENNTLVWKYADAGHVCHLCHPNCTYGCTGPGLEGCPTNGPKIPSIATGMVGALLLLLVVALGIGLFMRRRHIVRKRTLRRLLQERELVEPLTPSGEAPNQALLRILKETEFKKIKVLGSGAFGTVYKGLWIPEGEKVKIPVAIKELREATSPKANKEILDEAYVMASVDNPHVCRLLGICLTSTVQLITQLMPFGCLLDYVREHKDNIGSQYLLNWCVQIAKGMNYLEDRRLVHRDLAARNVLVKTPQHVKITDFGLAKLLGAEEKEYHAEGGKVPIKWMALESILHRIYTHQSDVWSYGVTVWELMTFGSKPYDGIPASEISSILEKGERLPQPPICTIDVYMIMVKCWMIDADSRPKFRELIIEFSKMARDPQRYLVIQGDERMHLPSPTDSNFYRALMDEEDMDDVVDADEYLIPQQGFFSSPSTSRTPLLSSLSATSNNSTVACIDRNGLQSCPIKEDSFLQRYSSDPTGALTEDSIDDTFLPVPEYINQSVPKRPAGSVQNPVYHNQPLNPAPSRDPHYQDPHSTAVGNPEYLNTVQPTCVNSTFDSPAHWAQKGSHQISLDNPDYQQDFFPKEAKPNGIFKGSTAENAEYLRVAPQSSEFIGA
Nuclear factor NF-kappa-B complex, sequence (P19838 1-433 limits assumed): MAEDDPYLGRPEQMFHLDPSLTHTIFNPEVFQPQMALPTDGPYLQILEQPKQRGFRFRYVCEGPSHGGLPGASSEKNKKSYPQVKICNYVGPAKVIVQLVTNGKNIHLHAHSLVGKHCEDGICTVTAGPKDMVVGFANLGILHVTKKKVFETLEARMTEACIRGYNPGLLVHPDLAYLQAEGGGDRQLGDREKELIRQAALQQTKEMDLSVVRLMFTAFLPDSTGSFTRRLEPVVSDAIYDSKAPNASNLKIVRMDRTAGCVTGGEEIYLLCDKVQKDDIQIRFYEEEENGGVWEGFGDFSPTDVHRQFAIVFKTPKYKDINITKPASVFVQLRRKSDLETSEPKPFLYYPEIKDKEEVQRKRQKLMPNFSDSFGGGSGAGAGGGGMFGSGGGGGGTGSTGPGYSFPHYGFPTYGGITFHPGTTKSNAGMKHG
Nuclear factor NF-kappa-B complex, sequence (Q00653 1-454 limits assumed): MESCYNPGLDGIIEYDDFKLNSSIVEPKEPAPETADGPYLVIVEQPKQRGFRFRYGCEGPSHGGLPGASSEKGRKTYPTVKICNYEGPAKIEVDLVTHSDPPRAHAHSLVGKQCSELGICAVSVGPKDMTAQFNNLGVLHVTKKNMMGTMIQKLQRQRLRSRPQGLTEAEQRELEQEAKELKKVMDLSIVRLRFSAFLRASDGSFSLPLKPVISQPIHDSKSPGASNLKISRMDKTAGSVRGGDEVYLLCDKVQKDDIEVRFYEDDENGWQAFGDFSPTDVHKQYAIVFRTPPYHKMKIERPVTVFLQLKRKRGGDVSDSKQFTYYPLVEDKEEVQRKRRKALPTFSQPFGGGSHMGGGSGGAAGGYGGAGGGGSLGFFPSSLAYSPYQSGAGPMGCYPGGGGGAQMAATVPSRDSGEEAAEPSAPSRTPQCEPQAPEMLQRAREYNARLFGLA
Nuclear factor NF-kappa-B complex, sequence (Q04206 whole entry): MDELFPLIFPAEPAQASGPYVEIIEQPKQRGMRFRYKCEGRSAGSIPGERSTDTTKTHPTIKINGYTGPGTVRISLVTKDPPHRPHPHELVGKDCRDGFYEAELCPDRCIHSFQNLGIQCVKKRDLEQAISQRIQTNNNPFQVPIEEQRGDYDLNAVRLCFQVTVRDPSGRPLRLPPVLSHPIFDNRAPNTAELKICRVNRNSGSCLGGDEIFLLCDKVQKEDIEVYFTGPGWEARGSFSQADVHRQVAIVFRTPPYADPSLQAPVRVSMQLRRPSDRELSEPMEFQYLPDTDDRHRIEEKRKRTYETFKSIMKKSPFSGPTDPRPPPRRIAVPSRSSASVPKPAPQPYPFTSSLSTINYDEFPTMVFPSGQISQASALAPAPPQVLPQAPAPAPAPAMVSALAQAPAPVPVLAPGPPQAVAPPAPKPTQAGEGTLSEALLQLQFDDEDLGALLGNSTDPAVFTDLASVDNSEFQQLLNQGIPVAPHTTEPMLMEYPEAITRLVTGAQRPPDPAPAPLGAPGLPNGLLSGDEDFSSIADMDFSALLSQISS
Receptor tyrosine-protein kinase erbB-2, sequence (P04626 whole entry): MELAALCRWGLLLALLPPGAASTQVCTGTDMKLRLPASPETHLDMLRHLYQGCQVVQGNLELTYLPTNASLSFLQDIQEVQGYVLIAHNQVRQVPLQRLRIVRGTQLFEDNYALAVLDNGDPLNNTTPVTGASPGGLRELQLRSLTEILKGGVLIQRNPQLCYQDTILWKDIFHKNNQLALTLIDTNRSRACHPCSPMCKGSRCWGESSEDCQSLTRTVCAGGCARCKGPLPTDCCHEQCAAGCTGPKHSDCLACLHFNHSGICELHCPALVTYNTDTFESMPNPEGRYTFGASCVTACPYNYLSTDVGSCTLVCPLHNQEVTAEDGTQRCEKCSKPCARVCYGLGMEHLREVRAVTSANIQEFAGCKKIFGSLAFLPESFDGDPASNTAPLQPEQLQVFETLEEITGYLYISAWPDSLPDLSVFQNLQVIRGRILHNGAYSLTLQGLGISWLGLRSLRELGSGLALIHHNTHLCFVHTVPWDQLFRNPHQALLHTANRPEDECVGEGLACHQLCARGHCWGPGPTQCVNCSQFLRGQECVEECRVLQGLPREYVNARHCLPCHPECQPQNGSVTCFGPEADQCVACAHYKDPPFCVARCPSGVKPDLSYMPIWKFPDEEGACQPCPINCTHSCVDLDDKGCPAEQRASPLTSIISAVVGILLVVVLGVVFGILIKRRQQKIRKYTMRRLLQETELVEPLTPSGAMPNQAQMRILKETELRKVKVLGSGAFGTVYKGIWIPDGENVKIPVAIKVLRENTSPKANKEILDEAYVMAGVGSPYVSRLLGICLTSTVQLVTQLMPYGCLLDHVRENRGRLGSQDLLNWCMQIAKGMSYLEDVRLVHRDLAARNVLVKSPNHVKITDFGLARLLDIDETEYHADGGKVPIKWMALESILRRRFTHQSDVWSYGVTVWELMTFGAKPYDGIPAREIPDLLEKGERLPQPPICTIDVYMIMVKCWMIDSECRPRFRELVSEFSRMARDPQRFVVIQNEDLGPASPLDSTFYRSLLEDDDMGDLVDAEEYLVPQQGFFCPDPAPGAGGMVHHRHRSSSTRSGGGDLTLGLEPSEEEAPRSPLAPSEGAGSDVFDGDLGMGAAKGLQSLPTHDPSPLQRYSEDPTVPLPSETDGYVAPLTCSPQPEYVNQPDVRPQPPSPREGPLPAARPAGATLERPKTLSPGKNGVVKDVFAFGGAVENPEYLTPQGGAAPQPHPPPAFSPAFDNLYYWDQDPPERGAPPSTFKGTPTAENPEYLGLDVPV
T3 sequence (Q13547 whole entry): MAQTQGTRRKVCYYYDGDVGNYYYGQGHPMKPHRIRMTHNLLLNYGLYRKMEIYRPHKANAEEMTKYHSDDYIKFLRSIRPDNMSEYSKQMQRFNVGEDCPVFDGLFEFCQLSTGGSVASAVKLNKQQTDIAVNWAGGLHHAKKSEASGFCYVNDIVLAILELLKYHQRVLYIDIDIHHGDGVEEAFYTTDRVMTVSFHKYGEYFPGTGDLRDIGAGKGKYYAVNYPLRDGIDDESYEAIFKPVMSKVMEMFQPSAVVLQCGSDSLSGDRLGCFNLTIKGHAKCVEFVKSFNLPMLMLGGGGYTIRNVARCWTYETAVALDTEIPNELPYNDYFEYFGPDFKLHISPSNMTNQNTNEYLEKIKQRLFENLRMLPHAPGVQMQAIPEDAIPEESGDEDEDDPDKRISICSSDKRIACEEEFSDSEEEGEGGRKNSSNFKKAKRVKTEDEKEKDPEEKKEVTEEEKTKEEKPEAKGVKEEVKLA
Histone deacetylase 3, sequence (O15379 whole entry): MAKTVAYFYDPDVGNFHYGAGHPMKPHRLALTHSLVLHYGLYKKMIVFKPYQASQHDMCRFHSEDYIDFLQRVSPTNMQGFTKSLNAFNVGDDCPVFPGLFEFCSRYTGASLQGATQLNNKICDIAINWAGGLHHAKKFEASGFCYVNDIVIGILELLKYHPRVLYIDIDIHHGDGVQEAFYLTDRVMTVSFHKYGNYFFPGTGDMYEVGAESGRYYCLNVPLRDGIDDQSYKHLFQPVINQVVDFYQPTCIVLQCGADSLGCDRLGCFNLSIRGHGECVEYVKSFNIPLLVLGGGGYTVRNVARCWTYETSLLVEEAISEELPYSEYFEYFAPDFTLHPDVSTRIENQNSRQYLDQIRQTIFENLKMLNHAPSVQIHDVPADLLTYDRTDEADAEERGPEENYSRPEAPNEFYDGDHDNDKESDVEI

GI50 (NCI-H1975): 127 nM
GI50 (MCF7 [1]): 94 nM
GI50 (A-431 [2]): 41 nM
Compound: CC(C)(O)CC(=O)NCCc1ccc2ncnc(Nc3ccc(Oc4cccc(C(F)(F)F)c4)c(Cl)c3)c2c1

IC50 [3]: 86.2 nM
IC50 [4]: 83.9 nM
Compound: COc1cc2ncnc(Oc3ccc(NC(=O)Nc4cccc(C(F)(F)F)c4)c4ccccc34)c2cc1OC

GI50 (MCF7 [6]): 490 nM
GI50 (A549): 1640 nM
GI50 (A-431 [7]): 670 nM
Compound: O=C(Nc1ccc2ncnc(Nc3cccc(Br)c3)c2c1)c1ccc(C(F)(F)F)cc1O

IC50 [8]: 31.2 nM
IC50 (Tubulin [5]): 108 nM
Compound: NS(=O)(=O)c1ccc(NC(=O)c2ccccc2NC(=O)c2ccco2)cc1

GI50 (HT-29): 790 nM
GI50 (MDA-MB-231): 600 nM
GI50 (MDA-MB-468): 230 nM
Compound: COc1cc(NC(=O)CCCCCCC(=O)NO)ccc1Nc1nccc(-c2cn(C)c3ccccc23)n1
GI50 (KG-1): 240 nM

IC50 [10]: 120 nM
Compound: O=C(/C=C\c1ccc(OC(F)(F)F)cc1)c1ccc(Br)c2cc(-c3ccc(F)cc3)oc12

IC50 [11]: 4.3 nM
IC50 (Histone deacetylase 1 [12]): 1.1 nM
IC50 [10]: 10.3 nM
Compound: O=C(CCCCn1cc(-c2ccc3ncnc(Nc4ccccc4F)c3c2)nn1)NO

IC50 (Histone deacetylase 3): 180 nM
inhibition [13]: 9.7%
IC50 (Histone deacetylase 1 [14]): 160 nM
IC50 [15]: 560 nM
Compound: COc1cc2ncnc(Nc3cccc(/C=C/C(=O)NO)c3)c2cc1OCCCN1CCOCC1

IC50 [10]: 90 nM
Compound: COc1ccc(/C=C\C(=O)c2ccc(Br)c3cc(-c4ccc(F)cc4)oc23)cc1

IC50 [17]: 600 nM
Compound: FC(F)(F)c1csc(NC(=S)Nc2ccc3ncnc(Nc4cccc(Cl)c4)c3c2)n1

IC50 [17]: 300 nM
Compound: Fc1cc(F)cc(NC(=S)Nc2ccc3ncnc(Nc4cccc(Cl)c4)c3c2)c1

Second part, the compound before the results:

Compound: COc1cc(Nc2ncnc3cc(-c4ccc(C)cc4)sc23)cc(OC)c1OC
IC50 (Tubulin [5]): 710 nM

Compound: CCN1CCN(Cc2ccc(-c3cc4c(N[C@H](C)c5ccccc5)ncnc4[nH]3)cc2)CC1 [AEE-788]
IC50 [9]: 6 nM

Compound: CCOCCSc1nc(-c2ccccc2Cl)nn1CCOCC
IC50 [8]: 86.7 nM
IC50 (Tubulin [16]): 10700 nM

Compound: COc1ccc(N(C)c2nc(N)nc3c(Cc4ccccc4)c[nH]c23)cc1
IC50 (Tubulin [5]): > 20000 nM

Compound: S=C(NCc1ccccc1)Nc1ccc2ncnc(Nc3cccc(Br)c3)c2c1
IC50 [17]: 4100 nM

Compound: Cc1c(NC(=O)OC[C@@H]2COCCN2)cn2ncnc(Nc3ccc4c(cnn4Cc4cccc(F)c4)c3)c12 [AC-480]
IC50 [9]: 30 nM

Compound: O=C(Nc1ccccc1C(=O)N/N=C/c1ccc(O)cc1O)c1ccco1
IC50 [8]: 85.4 nM
IC50 (Tubulin [5]): 87.6 nM

Compound: Cn1cc(-c2ccnc(Nc3ccc(C(=O)NCCCCCCC(=O)NO)cc3)n2)c2ccccc21
IC50 (Histone deacetylase): 105 nM
